Drawing on patent publication US10493070B2 (priority 2016, dated 2019), this text covers EC50 for 40 compounds.

The subject of the first assay is recombinant NL4-3 virus (NLRluc, Renilla luciferase in nef, Gag P373S). Kind of assay: HIV cell culture assay (Renilla luciferase reporter virus in MT-2 cells). The format is cell-based. The note with it: Renilla, NL43, read-out: 10% FBS EC50, 10% FBS, class symbols A/B/C. As to the method: MT-2 cells and 293T cells were obtained from the NIH AIDS Research and Reference Reagent Program. MT-2 cells were propagated in RPMI 1640 media supplemented with 10% heat inactivated fetal bovine serum, […]. The 293T cells were propagated in DMEM media supplemented with 10% heat inactivated fetal bovine serum (FBS), 100 units/ml penicillin G and 100 μg/ml streptomycin. The proviral DNA clone of NL4-3 was obtained from the NIH AIDS Research and Reference Reagent Program. A recombinant NL4-3 virus, in which a section of the nef gene from NL4-3 was replaced with the Renilla luciferase gene, was used as a reference virus. In addition, residue Gag P373 was converted to P373S. Briefly, the recombinant virus was prepared by transfection of the altered proviral clone of NL4-3. Transfections were performed in 293T cells using LipofectAMINE PLUS from Invitrogen (Carlsbad, Calif.), according to manufacturer's instruction. The virus was titered in MT-2 cells using luciferase enzyme activity as a marker. Luciferase was quantitated using the Dual Luciferase kit from Promega (Madison, Wis.), with modifications to the manufacturer's protocol. The diluted Passive Lysis solution was pre-mixed with the re-suspended Luciferase Assay Reagent and the re-suspended Stop & Glo Substrate (2:1:1 ratio). Fifty (50) μL of the mixture was added to each aspirated well on assay plates and luciferase activity was measured immediately on a Wallac TriLux (Perkin-Elmer). Antiviral activities of inhibitors toward the recombinant virus were quantified by measuring luciferase activity in cells infected for 4-5 days with NLRluc recombinants in the presence serial dilutions of the inhibitor. Table 16 is the key for the data in Table 17.
As for `CC1(C)C(c2ccc(C(=O)O)cc2)=CC[C@]2(C)CN(C(=O)c3cccc(C(=O)N4CC=C5C(C)(C)C(c6ccc(C(=O)O)cc6)=CC[C@]5(C)C4)n3)CC=C12` [Example 61], the EC50 was > 3 µM. Take `CC1(C)C(c2ccc(C(=O)O)cc2)=CC[C@]2(C)CN(C(=O)c3ccc(F)cc3)CC=C12` [Example 3]: the EC50 was > 3 µM. On to `CN(C)c1ccc(C(=O)N2CC=C3C(C)(C)C(c4ccc(C(=O)O)cc4)=CC[C@]3(C)C2)cc1` [Example 25], for which the EC50 is > 3 µM. For `Cc1ccc2nc(-c3ccccc3C(=O)N3CC=C4C(C)(C)C(c5ccc(C(=O)O)cc5)=CC[C@]4(C)C3)[nH]c2c1C` [Example 98], the EC50 was < 0.5 µM. `Cc1cc2nc(-c3ccccc3C(=O)N3CC=C4C(C)(C)C(c5ccc(C(=O)O)cc5)=CC[C@]4(C)C3)[nH]c2cc1Cl` [Example A254]: the EC50 was < 0.5 µM.

Take `COc1ccc(C(=O)N2CC=C3C(C)(C)C(c4ccc(C(=O)O)cc4)=CC[C@]3(C)C2)cc1` [Example 19]: the EC50 is > 3 µM. Take `CN(C)CCC(=O)N1CC=C2C(C)(C)C(c3ccc(C(=O)O)cc3)=CC[C@]2(C)C1` [Example 34]: the EC50 was > 3 µM. Take `CCOC(=O)c1cnc(N2CC=C3C(C)(C)C(c4ccc(C(=O)O)cc4)=CC[C@]3(C)C2)s1` [Example B14]: the EC50 is 0.5 to 3 µM. Regarding `CC1(C)C(c2ccc(C(=O)O)cc2)=CC[C@@]2(C)CN(C(=O)c3ccccc3-c3nc4c(ccc5ccccc54)o3)CC=C12` [Example A324], the EC50 was < 0.5 µM.

Regarding `CC1(C)C(c2ccc(C(=O)O)cc2)=CC[C@]2(C)CN(c3cc(C(=O)O)cc([N+](=O)[O-])c3)CC=C12` [Example B15], the EC50 is > 3 µM. On to `CC1(C)C(c2ccc(C(=O)O)cc2)=CC[C@]2(C)CN(c3cc(F)cc(-c4nnn(CCN5CCS(=O)(=O)CC5)n4)c3)CC=C12` [Example B8], for which the EC50 was < 0.5 µM. As to `CC1(C)C(c2ccc(C(=O)O)cc2)=CC[C@]2(C)CN(C(=O)c3nc4ccccc4[nH]3)CC=C12` [Example A66], the EC50 was > 3 µM. `CC1(C)C(c2ccc(C(=O)O)cc2)=CC[C@]2(C)CN(C(=O)c3cccc(C(=O)N4CC=C5C(C)(C)C(c6ccc(C(=O)O)cc6)=CC[C@]5(C)C4)c3)CC=C12` [Example 58, 4,4′-((8aS,8a′S)-isophthaloylbis(5,5,8a-trimethyl-1,2,3,5,8,8a-hexahydroisoquinoline-2,6-diyl))dibenzoic acid]: the EC50 was < 0.5 µM. On to `CC1(C)C(c2ccc(C(=O)O)cc2)=CC[C@]2(C)CN(C(=O)c3ccc4[nH]nnc4c3)CC=C12` [Example 42], for which the EC50 was > 3 µM.

As for `CC(C)(C)OC(=O)N1CCCCC1CCC(=O)N1CCC(C(=O)N2CC=C3C(C)(C)C(c4ccc(C(=O)O)cc4)=CC[C@]3(C)C2)(c2ccccc2)CC1` (stereo partly shown) [Example A168], the EC50 is < 0.5 µM. As to `Cc1nn(-c2ccccc2)nc1C(=O)N1CC=C2C(C)(C)C(c3ccc(C(=O)O)cc3)=CC[C@]2(C)C1` [Example A40], the EC50 is > 3 µM. Take `CC1(C)C(c2ccc(C(=O)O)cc2)=CC[C@]2(C)CN(c3ncccn3)CC=C12` [Example B11]: the EC50 was > 3 µM. As to `CC1(C)C(c2ccc(C(=O)O)cc2)=CC[C@]2(C)CN(C(=O)C(=O)N3CCC[C@H]3C(=O)NCCCN3CCS(=O)(=O)CC3)CC[C@@H]12` [Example C2, 4-((4aS,8aS)-2-(2-((S)-2-((3-(1,1-dioxidothiomorpholino)propyl)carbamoyl)pyrrolidin-1-yl)-2-oxoacetyl)-5,5,8a-trimethyl-1,2,3,4,4a,5,8,8a-octahydroisoquinolin-6-yl)benzoic acid], the EC50 was > 3 µM.

`CC(C)(C)OC(=O)NCc1ccc(C(=O)N2CC=C3C(C)(C)C(c4ccc(C(=O)O)cc4)=CC[C@]3(C)C2)cc1` [Example 33]: the EC50 is > 3 µM.

For `CC1(C)C(c2ccc(C(=O)O)cc2)=CC[C@]2(C)CN(C(=O)c3cccc(C(=O)NCCCN4CCS(=O)(=O)CC4)c3)CC=C12` [Example 66], the EC50 is > 3 µM. Same read-out and setting: next, `CC1(C)C(c2ccc(C(=O)O)cc2)=CC[C@]2(C)CN(c3ncc(C(=O)O)s3)CC=C12` [Example B12]: > 3 µM.

Staying with this assay, now noted: Renilla, NL43, read-out: 10% FBS EC50, 10% FBS, numeric values.
As to `CC1(C)C(c2ccc(C(=O)O)cc2)=CC[C@]2(C)CN(C(=O)c3ccccc3-c3nc4cc(C(=O)c5ccccc5)ccc4[nH]3)CC=C12` [Example A281], the EC50 turned out to be 0.95 µM. For the compound `CC(C)(C)OC(=O)N1CCC(C(=O)N2CCC3C(C)(C)[C@@H](c4ccc(C(=O)O)cc4)CC[C@]3(C)C2)(c2ccccc2)CC1` (stereo partly shown) [Example 84], the EC50 came to 0.05 µM. On to `CC1(C)C(c2ccc(C(=O)O)cc2)=CC[C@]2(C)CN(C(=O)c3ccccc3-c3nc4cc(Cl)c(Cl)cc4n3CCc3ccccc3)CC=C12` [Example A277], for which the EC50 came to 2.25 µM. Turning to `CC1(C)C(c2ccc(C(=O)O)cc2)=CC[C@]2(C)CN(C(=O)c3ccc(C(=O)N4CC=C5C(C)(C)C(c6ccc(C(=O)O)cc6)=CC[C@]5(C)C4)cc3)CC=C12` [Example 59], the EC50 is 1.05 µM. Consider `CN1Cc2c(ccc3nc(-c4ccccc4C(=O)N4CC=C5C(C)(C)C(c6ccc(C(=O)O)cc6)=CC[C@]5(C)C4)[nH]c23)C(c2ccccc2)C1` (stereo partly shown) [Example 100], for which the EC50 amounted to 2.81 µM. With `CC(C)(C)OC(=O)NCCn1c(-c2ccccc2C(=O)N2CC=C3C(C)(C)C(c4ccc(C(=O)O)cc4)=CC[C@]3(C)C2)nc2cc(C(F)(F)F)ccc21` [Example A283], the EC50 stood at 1.37 µM. As for `CC1(C)C(c2ccc(C(=O)O)cc2)=CC[C@]2(C)CN(C(=O)c3ccccc3-n3cccn3)CC=C12` [Example A58], the EC50 was found to be 1.85 µM. Turning to `CC1(C)C(c2ccc(C(=O)O)cc2)=CC[C@]2(C)CN(C(=O)c3ccccc3-c3nc4c(Cl)cccc4[nH]3)CC=C12` [Example A270], the EC50 was 0.014 µM.

On to `CC1(C)C(c2ccc(C(=O)O)cc2)=CC[C@]2(C)CN(C(=O)c3cscc3C(=O)N3CC=C4C(C)(C)C(c5ccc(C(=O)O)cc5)=CC[C@]4(C)C3)CC=C12` [Example 64], for which the EC50 was determined as 1.06 µM. For `CC1(C)C(c2ccc(C(=O)O)cc2)=CC[C@]2(C)CN(C3CCC(CN(CCN4CCS(=O)(=O)CC4)CCN4CCS(=O)(=O)CC4)(c4ccccc4)CC3)CC=C12` (stereo partly drawn) [Example C4, (S)-4-(2-(4-((bis(2-(1,1-dioxidothiomorpholino)ethyl)amino)methyl)-4-phenylcyclohexyl)-5,5,8a-trimethyl-1,2,3,5,8,8a-hexahydroisoquinolin-6-yl)benzoic acid], the EC50 was > 3 µM. Consider `CC1(C)C(c2ccc(C(=O)O)cc2)=CC[C@]2(C)CN(c3ncnc(NCCCN4CCS(=O)(=O)CC4)n3)CC=C12` [Example 74, (S)-4-(2-(4-((3-(1,1-dioxidothiomorpholino)propyl)amino)-1,3,5-triazin-2-yl)-5,5,8a-trimethyl-1,2,3,5,8,8a-hexahydroisoquinolin-6-yl)benzoic acid], for which the EC50 was 0.34 µM. Take `Cn1nc(-c2ccccc2)c(C(=O)N2CC=C3C(C)(C)C(c4ccc(C(=O)O)cc4)=CC[C@]3(C)C2)c1Cl` [Example A79]: the EC50 was 0.87 µM.

Consider `CC1(C)C(c2ccc(C(=O)O)cc2)=CC[C@]2(C)CN(C(=O)c3ccccc3-c3ccc(C#N)cc3)CC=C12` [Example A71], for which the EC50 is 1.3 µM.

Take `CC1(C)C(c2ccc(C(=O)O)cc2)=CC[C@]2(C)CN(c3cc(NC(=O)CCN4CCS(=O)(=O)CC4)cc(-c4nnn(CCN5CCS(=O)(=O)CC5)n4)c3)CC=C12` [Example B4, (S)-4-(2-(3-(2-(2-(1,1-dioxidothiomorpholino)ethyl)-2H-tetrazol-5-yl)-5-(3-(1,1-dioxidothiomorpholino)propanamido)phenyl)-5,5,8a-trimethyl-1,2,3,5,8,8a-hexahydroisoquinolin-6-yl)benzoic acid]: the EC50 came to 1.7 µM. As for `CC1(C)C(c2ccc(C(=O)O)cc2)=CC[C@]2(C)CN(C(=O)c3ccccc3-c3nc4cc(Br)c(Br)cc4[nH]3)CC=C12` [Example 99, (S)-4-(2-(2-(5,6-dibromo-1H-benzo[d]imidazol-2-yl)benzoyl)-5,5,8a-trimethyl-1,2,3,5,8,8a-hexahydroisoquinolin-6-yl)benzoic acid], the EC50 is 0.016 µM. On to `Cc1ccc2oc(-c3ccccc3C(=O)N3CC=C4C(C)(C)C(c5ccc(C(=O)O)cc5)=CC[C@]4(C)C3)nc2c1` [Example A309], for which the EC50 was determined as 0.171 µM. The same measure, in the same setting: next, `CC1(C)C(c2ccc(C(=O)O)cc2)=CC[C@]2(C)CN(C(=O)C3(c4ccccc4)CCN(CCN4CCS(=O)(=O)CC4)CC3)CC=C12` [Example 96, (S)-4-(2-(1-(2-(1,1-dioxidothiomorpholino)ethyl)-4-phenylpiperidine-4-carbonyl)-5,5,8a-trimethyl-1,2,3,5,8,8a-hexahydroisoquinolin-6-yl)benzoic acid]: 1.35 µM; `CC1(C)C(c2ccc(C(=O)O)cc2)=CC[C@]2(C)CN(C(=O)C3(c4ccccc4)CCN(C(=O)CN4CCS(=O)(=O)CC4)CC3)CC=C12` [Example 94]: 1.37 µM. For `COc1ccnc(N2CC=C3C(C)(C)C(c4ccc(C(=O)O)cc4)=CC[C@]3(C)C2)n1` [Example B13], the EC50 was 2.7 µM.
